The record followed here is patent publication US20170037078A1, “2' -DIS[…] FOR TREATMENT OF THE FL[…] OF VIRUSES AND CANCER” (Cocrystal Pharma, Inc., priority 2014, published 2017).

Entries after “also recorded” stand apart in the source; their conditions may differ. Like-named read-outs stand apart in the source and are kept apart here. A value given as a limit tells only on which side of the number the result lay.

A word on the IC50: it is the concentration that inhibits the measured activity by half. Usually CC50 stands for the concentration giving 50% cytotoxicity. Broadly, the % inhibition is the change of the read-out against control, counted positive when it falls. As usually defined, the EC50 is the midpoint of the concentration-response curve. A higher EC50 goes with weaker potency. A word on the EC90: it is the concentration at which the effect reaches the 90% level. A high value points to weaker potency. Broadly, the inhibition is how much of the control response was suppressed.

Data set [1] deals with HepG2 cells. In words: Mitochondrial toxicity assay: mitochondrial and nuclear DNA levels in HepG2 cells. The data set is classed as cell-based. Particulars: 14-day assay. The method, then: This assay was used in all studies described in this application that determine the effect of compounds on mitochondrial DNA content. In this assay, low-passage-number HepG2 cells were seeded at 5,000 cells/well in collagen-coated 96-well plates. Test compounds were added to the medium to obtain final concentrations of 0 μM, 0.1 μM, 10 μM and 100 μM. […] The mitochondrial cytochrome c oxidase subunit II (COXII) gene and the β-actin or rRNA gene were amplified from 5 μl of the eluted nucleic acids using a multiplex Q-PCR protocol with suitable primers and probes for both target and reference amplifications. […] For exon 3 of the […] gene (GenBank accession number E01094) the sense, probe, and antisense primers are 5′-[…]-3′, 5′-6-[…]-3′ and 5′-[…]-3′, respectively. The primers and probes for the rRNA gene are commercially available from Applied Biosystems. […] The arithmetic formula for this approach is given by 2-ΔΔCT, where ΔΔCT is (CT for average target test sample−CT for target control)−(CT for average reference test−CT for reference control) (see Johnson M R, K Wang, J B Smith, M J Heslin, R B Diasio. Quantitation of dihydropyrimidine dehydrogenase expression by real-time reverse transcription polymerase chain reaction. Anal. Biochem. 2000; 278:175-184). A decrease in mitochondrial DNA content in cells grown in the presence of drug indicated mitochondrial toxicity.

For data set [2], the system named is HepG2 cells. Nature of the data set: Mitochondrial toxicity assay: lactic acid production in HepG2 cells. The data set is classed as cell-based. To be noted: 14-day assay. How it is done:
To measure the effects of the compounds on lactic acid production, HepG2 cells from a stock culture were diluted and plated in 12-well culture plates at 2.5×10^4 cells per well. […] […] The culture medium was then filtered, and the lactic acid content in the medium was determined using a colorimetric lactic acid assay (Sigma-Aldrich). Since lactic acid product can be considered a marker for impaired mitochondrial function, elevated levels of lactic acid production detected in cells grown in the presence of test compounds would indicate a drug-induced cytotoxic effect. • ii) Effect of Compounds on Mitochondrial DNA Synthesis:

Data set [3] has as its system Primary human bone marrow mononuclear cells. In words: Bone Marrow Colony Forming Cell Assay (BFU-E). The data set is classed as cell-based. How it is done:
Primary human bone marrow mononuclear cells were obtained commercially from Cambrex Bioscience (Walkersville, Md.). CFU-GM assays were carried out using a bilayer soft agar in the presence of 50 units/mL human recombinant granulocyte/macrophage colony-stimulating factor, while BFU-E assays used a […] matrix containing 1 unit/mL erythropoietin (see Sommadossi J P, Carlisle R. Toxicity of 3′-azido-3′-deoxythymidine and 9-(1,3-dihydroxy-2-propoxymethyl) guanine for normal human hepatopoietic progenitor cells in vitro. Antimicrob. Agents Chemother. 1987; 31: 452-454; Sommadossi, J P, Schinazi, R F, Chu, C K, and Xie, M Y. Comparison of cytotoxicity of the (−) and (+) enantiomer of 2′,3′-dideoxy-3′-thiacytidine in normal human bone marrow progenitor cells. Biochem. Pharmacol. 1992; 44:1921-1925). Each experiment was performed in duplicate in cells from three different donors. AZT was used as a positive control. […] The 50% inhibitory concentration (IC50) was obtained by least-squares linear regression analysis of the logarithm of drug concentration versus BFU-E survival fractions. Statistical analysis was performed with Student's t test for independent non-paired samples.

The nature of data set [4]: Cellular toxicity assay in Vero cells. It is filed as cell-based. To be noted: African green monkey, read-out: Cytotoxicity, CC50. The method, then:
(§1) The toxicity of the compounds was assessed in Vero, human PBM, CEM (human lymphoblastoid), MT-2, and HepG2 cells, as described previously (see Schinazi R. F., Sommadossi J.-P., Saalmann V., Cannon D. L., Xie M.-Y., Hart G. C., Smith G. A. & Hahn E. F. Antimicrob. Agents Chemother. 1990, 34, 1061-67). Cycloheximide was included as positive cytotoxic control, and untreated cells exposed to solvent were included as negative controls. The cytotoxicity IC50 was obtained from the concentration-response curve using the median effective method described previously (see Chou T.-C. & Talalay P. Adv. Enzyme Regul. 1984, 22, 27-55; Belen'kii M. S. & Schinazi R. F. Antiviral Res. 1994, 25, 1-11).

Data set [5] has as its system Vero. Nature of the data set: Cellular toxicity assay in Vero cells. The data set is classed as cell-based. The method, then: as §1
For data set [6], the system named is HCV GT 1b replicon (Huh-7 cells). Nature of the data set: HCV Replicon Assay. The data set is classed as cell-based. How it is done: (§2) Huh 7 Clone B cells containing HCV Replicon RNA were seeded in a 96-well plate at 5000 cells/well, and the compounds tested at 10 μM in triplicate immediately after seeding. Following five days incubation (37° C., 5% CO2), total cellular RNA was isolated by using versaGene RNA purification kit from Gentra. Replicon RNA and an internal control (TaqMan rRNA control reagents, Applied Biosystems) were amplified in a single step multiplex Real Time RT-PCR Assay. The antiviral effectiveness of the compounds was calculated by subtracting the threshold RT-PCR cycle of the test compound from the threshold RT-PCR cycle of the no-drug control (ΔCt HCV). A ΔCt of 3.3 equals a 1-log reduction (equal to 90% less starting material) in Replicon RNA levels. The cytotoxicity of the compounds was also calculated by using the ΔCt rRNA values. 2′-C-Me-C was used as the positive control. To determine EC90 and IC50 values^2, ΔCt: values were first converted into fraction of starting material^3 and then were used to calculate the % inhibition.
Background: Replicon systems follow genome replication, usually without infectious particles.

Data set [7] is described as follows: Cytotoxicity in HCV replicon assay (ΔCt rRNA). It is filed as cell-based. To be noted: human, Huh-7 Clone B cells containing HCV GT 1b replicon RNA; HCV GT 1b replicon Huh-7 cells. The method, then: as §2
Data set [8] concerns Human PBM. In words: Cellular toxicity assay in human PBM cells. To be noted: Human PBM cells. It is filed as cell-based. The method, then:
as §1

Data set [9] is described as follows: Cellular toxicity assay in human PBM cells. To be noted: human, human PBM cells; read-out: Cytotoxicity, CC50. It is filed as cell-based. The method, then:
as §1

The test system of data set [10] is CEM (human lymphoblastoid). In words: Cellular toxicity assay in CEM cells. It is filed as cell-based. How it is done: as §1
The nature of data set [11]: Cellular toxicity assay in CEM cells. Particulars: human, CEM lymphoblastoid cells, read-out: Cytotoxicity, CC50. The data set is classed as cell-based, human. The method, then:
as §1

Data set [12] deals with Huh-7 cells. In words: Cytotoxicity in HCV replicon assay (ΔCt rRNA). The data set is classed as cell-based. To be noted: HCV GT 1b replicon, Huh-7 cells. How it is done: as §2

With `Nc1ccn([C@H]2CC[C@@H](CO)O2)c(=O)n1` [ddC, reference compound], the “Summary (mitochondrial toxicity)” value in data set [1] is reported as “toxic”. In addition, in data set [1] (10 μM), the “% Inhibition MtDNA” value came out at 95.5%, the “% Inhibition nDNA” value is given as 52.6% and the “MtDNA Content (% of control)” value is 9.5 (5.7-16.0) % of control. Further, the 50% inhibitory concentration (IC50) in [1] (read-out: IC50, MtDNA) was less than 10 µM. Further, the IC50 in data set [1] (read-out: IC50, nDNA) was no more than 10 µM. Further, the “Lactic acid Production (% of control)” value in data set [2] (10 μM) is 325.93 ± 27.05 % of control.
`CC(C)OC(=O)[C@H](C)NP(=O)(OC[C@H]1O[C@@H](n2ccc(=O)[nH]c2=O)C(F)(Cl)[C@H]1O)Oc1ccccc1` (stereo partly drawn) [Compound 12, (2S)-isopropyl-2-(((4-chloro-5-(2,4-dioxo-3,4-dihydropyrimidin-1 (2H)-yl-4-fluoro-3-hydroxytetrahydrofuran-2-yl)methoxy) (phenoxy)phosphoryl)amino)propanoate]: the IC50 in data set [3] (Donor 2) is greater than 100 µM; in data set [3] (Homo sapiens, Donor 1), greater than 100 µM; in data set [1] (Homo sapiens, 336 h, read-out: IC50, MtDNA) it was greater than 50 µM; in [1] (Homo sapiens, 336 h, read-out: IC50, nDNA), greater than 50 µM. Moreover, the CC50 in data set [4], in data set [9] and in data set [11] was greater than 100 µM throughout. Also, the “% inhibition at maximum concentration evaluated” value in data set [5] was 17.4%; in [8] it was 36.2%; in [10], −4.8%. In addition, the EC50 in [6] (Hepatitis C virus, GT1B) lay within 0.1 to 1 µM. In data set [6] (Hepatitis C virus, GT1B), this molecule displayed an EC90 of 0.1 to 1 µM. Moreover, in [1], the “Summary (mitochondrial toxicity)” value was “non-toxic; also recorded: not toxic”. The “MtDNA Content (% of control)” value is 129 (117-143) % of control in [1] (10 μM) and 84 (68-102) % of control in data set [1] (50 μM). Moreover, the inhibition at 10 µM was less than 1% in [1] (Homo sapiens, 336 h, 10 μM, read-out: % Inhibition MtDNA) and less than 1% in data set [1] (Homo sapiens, 336 h, 10 μM, read-out: % Inhibition nDNA). Also, the inhibition at 50 µM in data set [1] (Homo sapiens, 336 h, 50 μM, read-out: % Inhibition MtDNA) came out at 27%; in data set [1] (Homo sapiens, 336 h, 50 μM, read-out: % Inhibition nDNA) it was 12.8%. Also, the CC50 at 5 days in data set [7] is greater than 10 µM. The “Lactic acid Production (% of control)” value in data set [2] (10 μM) is given as 60.20 ± 1.25 % of control; in data set [2] (50 μM) it was 55.49 ± 0.88 % of control.
With `O=c1ccn(C2OC(CO)C(O)C2(F)Cl)c(=O)[nH]1` (stereo not drawn) [Compound 10], the “% inhibition at maximum concentration evaluated” value in data set [5] is −30.7%; in data set [8] it was −4.1%; in [10] it was −48.1%. Further, the CC50 in [5] (read-out: Cytotoxicity, CC50) is greater than 100 µM; in data set [12], greater than 10 µM; in data set [8] (read-out: Cytotoxicity, CC50), greater than 100 µM; in [10] (read-out: Cytotoxicity, CC50), greater than 100 µM. The molecule further returned a 50% effective concentration (EC50) in data set [6] greater than 10 µM. This molecule had an EC90 in data set [6] greater than 10 µM. Besides, the “Summary (mitochondrial toxicity)” value in [1] is recorded as “non-toxic; also recorded: not toxic”. Further, the figures for the “% Inhibition MtDNA” value in [1] (10 μM) and in data set [1] (50 μM) were less than 1% and <1/<1%, respectively. Further, the “% Inhibition nDNA” value is listed as 8.76% in data set [1] (10 μM) and <1/<1% in data set [1] (50 μM). Moreover, the “MtDNA Content (% of control)” value in data set [1] (10 μM) was 161 (113-230) % of control; in data set [1] (50 μM) it was 116 (77-175) % of control. Also, the IC50 was greater than 50 µM in data set [1] (read-out: IC50, MtDNA) and greater than 50 µM in [1] (read-out: IC50, nDNA). Besides, the “Lactic acid Production (% of control)” value in data set [2] (10 μM) is reported as 84.59 ± 7.30 % of control; in data set [2] (50 μM), 122.3 ± 5.80 % of control.
With `Cc1cn([C@H]2C[C@H](N=[N+]=[N-])[C@@H](CO)O2)c(=O)[nH]c1=O` [AZT, reference compound], the half-inhibitory concentration (IC50) in data set [3] (Donor 1) came to 0.3 µM; in [3] (Donor 2) it was 2.9 µM.
